# Measurements as given in patent US20100004248A1, “Use of a Nitric Oxide Synthase Modulator for the Treatment of Cardiac Indications” (priority 2005, published 2010).
# System: C57/BL6 WT mice subjected to TAC pressure overload
# Test: In vivo hemodynamics, PV loop analysis, in TAC mice
# Set-up: species or system mouse
# Conditions: TAC 3 weeks
# Source text: Male NOS3 null mice (NOS3^−/−) and C57/BL6 WT controls (8-11 weeks, Jackson Labs, Bar Harbor, Me., USA) were used. Pressure overload was produced by transverse aorta constriction (TAC). Briefly, The aortic arch was isolated by entering the extrapleural space between the second and third rib, and afterwards the transverse aorta was isolated between the right and left carotid arteries. A 7-0 prolene suture ligature was tied around the transverse aorta against a 27-gauge needle to produce a 65-70% constriction after the removal of the needle. After closing the chest, animals were extubated, and a subcutaneous injection of morphine sulphate 0.2 mg, was administered before they returned to their cages. Animal's ventilatory and circulatory status was checked every 30 minutes during the first 2 hours. Sham-operated mice underwent the same operation except for aortic constriction. […] Animals were randomized to receive placebo or BH4 (120 mg/kg/d) for the next 5 weeks. At the end of the study, i.e. at 9 weeks, animal were sacrificed to receive tissue or underwent in vivo PV-loop analysis. […] Control mice were subject to sham operations, and animals were studied 3-9 weeks following surgery. An additional group of wild-type animals were subjected to TAC for 3 weeks while co-treated with oral tetrahydrobiopterin (BH4) (Sigma-Aldrich) (1 mg/g food) mixed in their rodent chow, providing 5 mg/day based on 4-6 g daily diet^8.
# Two different BH4 treatment protocols are used. For experiments related to FIGS. 1-7, where prevention of cardiac indications is described BH4 is provided orally as a treatment starting 2 days after TAC surgery (once mice are again eating oral diet). For those figures related to treatment of established cardiac indications, FIGS. 8-23, BH4 is provided orally but this is delayed for 4 weeks to establish substantial cardiac hypertrophy, remodeling, and NOS-uncoupling. Then the treatment is provided for the remaining 5 week period.
# In vivo left ventricular (LV) function was assessed by pressure-volume catheter^12,13. Mice were anesthetized with 1-2% isoflurane, urethane ([…], i.p.), etomidate (5-10 mg/kg, i.p.), and morphine (1-2 mg/kg, i.p.), underwent tracheostomy, and were ventilated with 6-7 μL/g tidal volume and 130 breaths/min. Volume expansion (12.5% human albumin, 50-100 μL over 5 min) was provided through a 30 G cannula via the right external jugular vein. The left ventricular apex was exposed through an incision between the 7-8th rib, and a catheter, specifically a 1.4 Fr PV catheter (SPR 839, Millar Instruments, Inc.), was advanced through the apex to lie along the longitudinal axis. Absolute volume was calibrated, and pressure-volume data was measured at steady state and during transient reduction of venous return as reported^13
# [1] = oral co-treatment 1 mg/g food, mean ± sem
smiles,measurement,setting,value
"Nc1nc2c(c(=O)[nH]1)NC(C(O)C(O)CO)CN2 (stereo not drawn) [H4N, tetrahydroneopterin]",functional or remodeling response to TAC,oral co-treatment,no effect
same,Arterial Elastance,[1],11.4 ± 0.7 mmHg/μL
same,Ejection Fraction,[1],43.4 ± 9.8%
same,End-diastolic Volume,[1],38.8 ± 8.0 µL
same,End-systolic Elastance,[1],41.0 ± 9.3 mmHg/μL · g
same,End-systolic Volume,[1],24.0 ± 7.6 µL
same,Heart RateR,[1],501.2 ± 28.5 min⁻¹
same,LV Systolic Pressure,[1],177.8 ± 4.6 mmHg
same,Peak Power Index,[1],31.8 ± 5.8 mmHg/s
same,Tau,[1],5.5 ± 0.36 ms
same,dPdtmn,[1],−10725 ± 971.0 mmHg/s
same,dPdtmx,[1],11154 ± 520 mmHg/s
